# Experimental data: publication PMC9942557, “Bolaamphiphile Analogues of 12-bis-THA Cl2 Are Potent Antimicrobial Therapeutics with Distinct Mechanisms of Action against Bacterial, Mycobacterial, and Fungal Pathogens” (mSphere, 2022)
# Where two headings read alike, the source gives them in different places.
# Legend:
# P. aeruginosa NCTC 13437 = assay: Fixed-concentration (0.25× MIC bolalipid) synergy broth microdilution; format: cell-based, Pseudomonas aeruginosa; settings: for MIC: Pseudomonas aeruginosa, NCTC13437, P. aeruginosa NCTC 13437, read-out: MIC of aminoglycoside; for MIC of antibiotic: P. aeruginosa NCTC 13437
# P. aeruginosa PAO1 = assay: as above; format: cell-based, Pseudomonas aeruginosa; settings: for MIC: Pseudomonas aeruginosa, PAO1, P. aeruginosa PAO1, read-out: MIC of aminoglycoside; for MIC of antibiotic: P. aeruginosa PAO1
# E. coli NCTC 12923 = assay: as above; format: cell-based; settings: Escherichia coli, NCTC12923, E. coli NCTC 12923, read-out: MIC of aminoglycoside
# A. baumannii ATCC 17978 [1] = assay: G. mellonella burn wound infection model; format: in vivo, Galleria mellonella; settings: alone
# From the text: In addition to the intrahemocoelic infection/therapy models described above, a recently described G. mellonella burn wound model was adopted ([37]). The burn was created using the flat head of a nail, which was heated in a blue Bunsen burner flame until red hot, cooled for 15 s, and superficially applied for 2 s to generate a 2-mm^2 burn. Larvae were then infected with a single colony of A. baumannii ATCC 17978 applied directly to the burn site, or sterile phosphate-buffered saline was applied as a control. Treatment was applied topically 1 h after infection in a volume of 5 μL. Survival was monitored over 96 h.
# A. baumannii AYE = assay: Fixed-concentration (0.25× MIC bolalipid) synergy broth microdilution; format: cell-based; settings: Acinetobacter baumannii
# A. baumannii ATCC 17978 [2] = assay: as above; format: cell-based; settings: Acinetobacter baumannii, ATCC17978, A. baumannii ATCC 17978, read-out: MIC of aminoglycoside
# K. pneumoniae M6 = assay: as above; format: cell-based; settings: Klebsiella pneumoniae
# K. pneumoniae NCTC 13368 = assay: as above; format: cell-based, Klebsiella pneumoniae; settings: for MIC of aminoglycoside: K. pneumoniae NCTC 13368; for MIC: Klebsiella pneumoniae
# EMRSA-15 = format: in vivo, Galleria mellonella
# [3] = system: Ac. pleuropneumoniae 2331; assay: Checkerboard synergy assay (BHI, 5% FBS, 0.01% NAD); format: cell-based, Actinobacillus pleuropneumoniae
# [4] = system: Ac. pleuropneumoniae Shope; assay: as above; format: cell-based, Actinobacillus pleuropneumoniae
# [5] = system: Ac. pleuropneumoniae 3370; assay: as above; format: cell-based, Actinobacillus pleuropneumoniae
# [6] = system: Ac. pleuropneumoniae 2356; assay: as above; format: cell-based, Actinobacillus pleuropneumoniae
# [7] = system: Pseudomonas aeruginosa RP73; assay: In vitro pharmacodynamic (PD) assay; settings: P. aeruginosa RP73; combination 2:1 (wt/wt)
# Procedure: In vitro PD assays were performed with Pseudomonas aeruginosa RP73 cultured in Roswell Park Memorial Institute 1640 medium (RPMI) supplemented with 5% Mueller-Hinton broth (MHB) ([35]). Bacteria were cultured overnight in 10 mL of RPMI–5% MHB at 37°C and diluted just prior to plate inoculation to an OD600 of 0.002. Stock solutions of colistin or tobramycin were prepared in sterile MilliQ water at a concentration of 200× MIC. Octa-bola was prepared in methanol at 2,000× MIC and diluted in water to 200× MIC. A dilution series was made in the top row of a polypropylene 96-well plate from 200× MIC to 0.2× MIC in a volume of 100 μL, to which 100 μL of the bacterial suspension was added to have a total of 1 × 10^6 log-phase CFU in 200 μL. The first time zero sample was taken <30 s after addition of bacteria to the plate, with further samples taken at appropriate intervals thereafter. […] Fifteen microliters was removed from each well, diluted 1:1,000 in phosphate-buffered saline, and plated onto RPMI–5% MH agar plates. The plates were incubated at 37°C overnight for CFU counting.
# CFU data were log10 transformed, and the bacterial net growth rate was determined from the increase or decrease in CFU during the time of exposure to the antibiotics as the coefficient of a linear regression of log10 CFU as a function of time. The intercept of the regression was fixed by forcing the regression lines through the first CFU measurement (0 min) at a given antimicrobial concentration. The pharmacodynamic function according to Regoes et al. ([36]) describes the relationship between bacterial net growth rate (ψ) and the concentration of an antimicrobial (a): ψmax − ([ψmax − ψmin][a/zMIC])^κ/([a/zMIC]^κ − [ψmin/ψmax]). Fitting this function to the net bacterial growth rates in OriginPro 2020 (OriginLab Corporation, Northampton, MA) generates the parameters ψmin and ψmax (minimum and maximum growth rates, respectively), zMIC (the pharmacodynamic MIC), and κ (a measure of the cooperativity). […]
# [8] = in the presence of 0.25× MIC Octa-Bola
# [9] = in the presence of 0.25× MIC Octa-C6
# [10] = in the presence of 0.25× MIC Octa-C10
# [11] = No bola, read-out: MIC of aminoglycoside
# [12] = in the presence of 0.25× MIC Octa-Bola, read-out: MIC of aminoglycoside
# [13] = in the presence of 0.25× MIC Octa-C6, read-out: MIC of aminoglycoside
# [14] = in the presence of 0.25× MIC Octa-C10, read-out: MIC of aminoglycoside
# [15] = in the presence of 0.25× MIC Octa-C10 (Table S1)
# [16] = in the presence of 0.25× MIC Octa-bola (Table S1)
compound,measurement,setting,value
CNC(C)C1CCC(N)C(OC2C(N)CC(N)C(OC3OCC(C)(O)C(NC)C3O)C2O)O1 (centres unmarked) [Gentamicin],MIC,P. aeruginosa NCTC 13437; No bola,256 µg/mL
same,MIC,P. aeruginosa NCTC 13437; [8],8 µg/mL
same,MIC,P. aeruginosa NCTC 13437; [9],8 µg/mL
same,MIC,P. aeruginosa NCTC 13437; [10],8 µg/mL
same,MIC,P. aeruginosa PAO1; No bola,2 µg/mL
same,MIC,P. aeruginosa PAO1; [8],0.5 µg/mL
same,MIC,P. aeruginosa PAO1; [9],0.25 µg/mL
same,MIC,P. aeruginosa PAO1; [10],0.25 µg/mL
same,MIC,E. coli NCTC 12923; No bola,2 µg/mL
same,MIC,E. coli NCTC 12923; [8],2 µg/mL
same,MIC,E. coli NCTC 12923; [9],2 µg/mL
same,MIC,E. coli NCTC 12923; [10],1 µg/mL
same,larvae rescued,"A. baumannii ATCC 17978 [1]; 5 mg/kg topical, 96 h",76%
same,protection,A. baumannii ATCC 17978 [1]; lower doses (2.5 and 1.25 mg/kg),ineffective
same,MIC,A. baumannii AYE; [11],256 µg/mL
same,MIC,A. baumannii AYE; [12],0.5 µg/mL
same,MIC,A. baumannii AYE; [13],32 µg/mL
same,MIC,A. baumannii AYE; [14],4 µg/mL
same,MIC,A. baumannii ATCC 17978 [2]; No bola,2 µg/mL
same,MIC,A. baumannii ATCC 17978 [2]; [8],0.25 µg/mL
same,MIC,A. baumannii ATCC 17978 [2]; [9],1 µg/mL
same,MIC,A. baumannii ATCC 17978 [2]; [10],1 µg/mL
same,MIC,K. pneumoniae M6; [11],1 µg/mL
same,MIC,K. pneumoniae M6; [12],1 µg/mL
same,MIC,K. pneumoniae M6; [13],1 µg/mL
same,MIC,K. pneumoniae M6; [14],1 µg/mL
same,MIC of aminoglycoside,K. pneumoniae NCTC 13368; [9],16 µg/mL
same,MIC of aminoglycoside,K. pneumoniae NCTC 13368; [10],16 µg/mL
same,MIC,"K. pneumoniae NCTC 13368; NCTC13368, K. pneumoniae NCTC 13368, in the presence of 0.25× MIC Octa-Bola, read-out: MIC of aminoglycoside",8 µg/mL
same,MIC,"K. pneumoniae NCTC 13368; NCTC13368, read-out: MIC of aminoglycoside",16 µg/mL
"CN[C@H](CC(C)C)C(=O)N[C@H]1C(=O)N[C@@H](CC(N)=O)C(=O)N[C@H]2C(=O)N[C@H]3C(=O)N[C@H](C(=O)N[C@H](C(=O)O)c4cc(O)cc(O)c4-c4cc3ccc4O)[C@H](O)c3ccc(c(Cl)c3)Oc3cc2cc(c3O[C@@H]2O[C@H](CO)[C@@H](O)[C@H](O)[C@H]2O[C@H]2C[C@](C)(N)[C@H](O)[C@H](C)O2)Oc2ccc(cc2Cl)[C@H]1O [Vancomycin, reference compound]",infected larvae rescued,"EMRSA-15; 50 mg/kg, single injection 2 h postinfection",~80%
same,infected larvae rescued,EMRSA-15; a tenth of 50 mg/kg dose,45%
"CCN1CCN(c2cc3c(cc2F)c(=O)c(C(=O)O)cn3C2CC2)CC1 [enrofloxacin, reference compound]",MIC alone Antibiotic,[3]; Octa-C10/enrofloxacin,0.125 µg/mL
same,MIC alone Antibiotic,[4]; Octa-C10/enrofloxacin,0.125 µg/mL
same,MIC alone Antibiotic,[5]; Octa-C10/enrofloxacin,0.125 µg/mL
same,MIC alone Antibiotic,[6]; Octa-C10/enrofloxacin,0.125 µg/mL
"[H]/N=C(/N)N[C@H]1[C@H](O)[C@@H](O)[C@H](O[C@@H]2O[C@@H](C)[C@](O)(C=O)[C@H]2O[C@@H]2O[C@@H](CO)[C@H](O)[C@@H](O)[C@@H]2NC)[C@@H](N/C(N)=N\[H])[C@@H]1O [streptomycin, reference compound]",MIC alone Antibiotic,[3]; Octa-C10/streptomycin,32 µg/mL
same,MIC alone Antibiotic,[4]; Octa-C10/streptomycin,32 to 64 µg/mL
same,MIC alone Antibiotic,[5]; Octa-C10/streptomycin,16 to 64 µg/mL
same,MIC alone Antibiotic,[6]; Octa-C10/streptomycin,64 µg/mL
Colistin,MIC of antibiotic,P. aeruginosa NCTC 13437; No bola (Table S1),0.25 to 0.5 µg/mL
same,MIC of antibiotic,P. aeruginosa NCTC 13437; [15],0.125 to 0.25 µg/mL
same,MIC of antibiotic,P. aeruginosa NCTC 13437; [16],0.125 µg/mL
same,MIC of antibiotic,P. aeruginosa PAO1; No bola (Table S1),0.125 to 0.25 µg/mL
same,MIC of antibiotic,P. aeruginosa PAO1; [15],0.06 µg/mL
same,MIC of antibiotic,P. aeruginosa PAO1; [16],0.06 µg/mL
same,"bactericidal activity (minimum growth rate, ψmin)",[7],weakly bactericidal
